From PubChem BioAssay (NCI)
Where “and” joins values, the source holds several entries; their conditions need not be identical. Identical values can stand only once.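 In this assay, cells in 96-well plates receive the compound at five concentrations for 48 hours. Endpoints are linearly interpolated between the surrounding concentrations. The concentration for 50% growth inhibition is given as GI50. At the TGI there is no net growth.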 Where a SMILES comes first, the peptide text is derived from it. [ ]: non-standard residue; d: D form. The star is where a group is joined. Bn2Val = CC(C)[C@@H](C(=O)*)N(Cc1ccccc1)Cc1ccccc1; NH(3,4-diMeO-benzyl) = COc1ccc(CN*)cc1OC; NMeV = CN[C@H](C(=O)O)C(C)C; dNMeA = CN[C@H](C)C(=O)O

Experiments:
Test in all cases: DTP human tumour cell line panel, 48 h
CCRF-CEM leukemia = tested on: CCRF-CEM leukemia
HCC-2998 colon = tested on: HCC-2998 colon
LOX IMVI melanoma = tested on: LOX IMVI melanoma
M14 melanoma = tested on: M14 melanoma
MDA-MB-231 breast = tested on: MDA-MB-231 breast
SK-MEL-2 melanoma = tested on: SK-MEL-2 melanoma
SK-MEL-5 melanoma = tested on: SK-MEL-5 melanoma
SN12C renal = tested on: SN12C renal
SNB-75 CNS = tested on: SNB-75 CNS
TK-10 renal = tested on: TK-10 renal

SMILES	GI50 (CCRF-CEM leukemia)	TGI (CCRF-CEM leukemia)	GI50 (HCC-2998 colon)	TGI (HCC-2998 colon)	GI50 (LOX IMVI melanoma)	TGI (LOX IMVI melanoma)	GI50 (M14 melanoma)	TGI (M14 melanoma)	GI50 (MDA-MB-231 breast)	TGI (MDA-MB-231 breast)	GI50 (SK-MEL-2 melanoma)	TGI (SK-MEL-2 melanoma)	GI50 (SK-MEL-5 melanoma)	TGI (SK-MEL-5 melanoma)	GI50 (SN12C renal)	TGI (SN12C renal)	GI50 (SNB-75 CNS)	TGI (SNB-75 CNS)	GI50 (TK-10 renal)	TGI (TK-10 renal)
CNC(=O)c1cc(Oc2ccc3c(c2)sc2nc(-c4ccc(N)cc4)cn23)ccn1	0.2 µM	> 100 µM	0.537 µM	> 50.5 µM	0.904 µM	> 100 µM	0.162 µM	> 100 µM	0.726 µM	> 100 µM	0.332 µM	> 100 µM	0.222 µM	11.5 µM	0.759 µM	> 100 µM	0.286 µM	> 100 µM	0.278 µM	> 100 µM
CCN1CCN(c2nc(NCCNc3ccnc4cc(Cl)ccc34)c3ccccc3n2)CC1	0.759 µM	7.59 µM	1.69 µM	4.91 µM	1.51 µM	3.01 µM	1.59 µM	3.36 µM	1.28 µM	2.88 µM	2.07 µM	4.33 µM	1.82 µM	3.21 µM	1.21 µM	2.88 µM	1.94 µM	5.85 µM	2.42 µM	6.02 µM
O=C1c2ccccc2C(=O)c2c1ccc1[nH]c(CCl)nc21	2.19 µM	6.42 µM	3.41 µM	12.7 µM	2.2 µM	5.22 µM	9.97 µM	22.8 µM	3.74 µM	15.3 µM	3.26 µM	12.2 µM	1.68 µM	3.07 µM	2.08 µM	4.87 µM	1.56 µM	10.8 µM	2.91 µM	9.79 µM
CN(C)c1ccc(/C=C2\C[N+](C)(C)C/C(=C\c3ccc(N(C)C)cc3)C2=O)cc1	–	38.9 µM	–	22.1 µM	–	36.4 µM	–	74.8 µM	–	36.7 µM	–	36.1 µM	–	23.6 µM	–	> 78 µM	–	67.3 µM	–	> 100 µM
COc1ccc(CNC(=O)[C@@H](C)N(C)C(=O)[C@@H]2CCCN2C(=O)[C@H](C(C)C)N(C)C(=O)[C@@H](NC(=O)[C@H](C(C)C)N(Cc2ccccc2)Cc2ccccc2)C(C)C)cc1OC (Bn2Val-V[NMeV]P[dNMeA]-{NH(3,4-diMeO-benzyl)})	0.756 µM	16.9 µM and 44.2 µM	–	21.2 µM	6.35 µM	15.4 µM and 26.2 µM	63.2 µM	16.9 µM and > 100 µM	10.8 µM	18.8 µM and 22.7 µM	4.38 µM	15.1 µM and 15 µM	–	12.1 µM	10 µM	17.2 µM and 22.2 µM	3.54 µM	16.6 µM and 15.9 µM	–	50 µM and 61.6 µM
COc1ccc(CNC(=O)COc2ccc(/C=N/Nc3nc4ccccc4s3)cc2)cc1	> 100 µM	> 100 µM	5.37 µM	> 100 µM	3.04 µM	> 100 µM	4.69 µM	> 100 µM	1.86 µM	4.45 µM	3.84 µM	16 µM	2.01 µM	5.06 µM	2.84 µM	> 100 µM	1.07 µM	3.29 µM	3.49 µM	16.3 µM
C[C@@H]1Cc2c([nH]c3ccccc23)[C@@H](c2c(F)cc(/C=C/C(=O)O)cc2F)N1CC(C)(C)F	12 µM	33.8 µM	10.4 µM	25.6 µM	12.3 µM	27.2 µM	14 µM	34.5 µM	18.4 µM	38 µM	13.8 µM	32.8 µM	10.7 µM	24.4 µM	11.9 µM	38.3 µM	12.9 µM	28.6 µM	15.9 µM	39.4 µM
CN(C)c1ccc2c(c1)oc(=O)c1ccccc12	–	27.9 µM	–	28.8 µM	–	18.7 µM	–	26.5 µM	–	34.4 µM	–	23.2 µM	–	22.8 µM	–	25.8 µM	–	31.9 µM	–	40 µM
O=c1c(Cl)c(Cl)cnn1-c1ccccc1	0.825 µM and 1.8 µM	9.58 µM and 5.53 µM	–	9.66 µM and 6.39 µM	–	3.26 µM and 4.03 µM	–	3.25 µM and 3.42 µM	–	3.34 µM	–	15.5 µM and 14.5 µM	2.42 µM and 7.82 µM	5.66 µM and 14.2 µM	–	8.88 µM and 4.01 µM	–	5.71 µM and 29.7 µM	–	24.7 µM and 29.8 µM
N#Cc1cnn2ccn(C3OC(COC(=O)c4ccccc4)C(OC(=O)c4ccccc4)C3OC(=O)c3ccccc3)c12 (centres undefined)	–	> 21.5 µM	–	> 21.5 µM	–	> 31.6 µM	–	> 21.5 µM	–	> 21.5 µM	–	0.843 µM	–	> 21.5 µM	–	> 21.5 µM	–	21.5 µM	–	> 31.6 µM
COc1ccc(-n2cc(-c3ccc(OC)c(OC)c3)[nH]c2=S)cc1Cl	> 100 µM	> 100 µM	> 100 µM	> 100 µM	> 100 µM	> 100 µM	> 100 µM	> 100 µM	61.4 µM	> 100 µM	> 100 µM	> 100 µM	> 100 µM	> 100 µM	> 100 µM	> 100 µM	4.75 µM	21 µM	> 100 µM	> 100 µM
O=C1c2ccccc2-c2c1c1cc3c(cc1c(=O)n2CCCCl)OCO3	66.1 µM	> 100 µM	24.4 µM	> 100 µM	39.7 µM	> 100 µM	65.3 µM	> 100 µM	24.7 µM	75.3 µM	> 100 µM	> 100 µM	33.5 µM	> 100 µM	21.8 µM	77.6 µM	0.58 µM	> 100 µM	30.9 µM	75.2 µM
CN1CCN(C(=S)N(C)C(=O)c2ccc(Cl)cc2)CC1	–	> 100 µM	–	> 100 µM	–	> 100 µM	–	> 100 µM	–	> 100 µM	–	> 100 µM	–	> 100 µM	–	> 100 µM	–	> 100 µM	–	> 100 µM
N#Cc1c(O)c2c(c(O)c1C#N)C(=O)c1ccccc1C2=O	2.23 µM	5.82 µM	2.51 µM	8.59 µM	0.349 µM	4.29 µM	0.41 µM	1.92 µM	2.01 µM	9.55 µM	2.66 µM	7.73 µM	0.282 µM	1.14 µM	1.82 µM	4.04 µM	1.37 µM	3.94 µM	4.2 µM	13.8 µM
CC(=O)c1ccc(N(/C=C/C(=O)C(F)(F)F)CC(=O)c2ccc(Cl)c(Cl)c2)cc1	10.4 µM	36.9 µM	18.5 µM	34.9 µM	12.4 µM	26.8 µM	13.3 µM	26.7 µM	11.6 µM	25 µM	15.3 µM	30.4 µM	17.7 µM	32.4 µM	15 µM	28.8 µM	18 µM	38.3 µM	15.8 µM	32.8 µM
CC1=C(CCCOC(=O)NCCCl)C2=C(C)C3(CC3)[C@@](C)(O)C(=O)C2=C1	9.4 µM	> 100 µM	2.35 µM	7.24 µM	3.13 µM	19.8 µM	2.46 µM	8.58 µM	2.56 µM	8.35 µM	2.31 µM	4.96 µM	1.73 µM	3.35 µM	3.84 µM	> 100 µM	1.75 µM	3.84 µM	3.55 µM	> 100 µM
Clc1ccc(Cc2nc3cc4ccccc4cc3[nH]2)cc1	2.21 µM	> 100 µM	15.8 µM	89.5 µM	13.2 µM	> 100 µM	53.1 µM	> 100 µM	25.4 µM	96.1 µM	> 100 µM	> 100 µM	3.17 µM	> 100 µM	94.8 µM	> 100 µM	> 100 µM	> 100 µM	10.6 µM	38.4 µM
O=[n+]1c(CBr)c(CBr)n([O-])c2ccccc21	2.79 µM	14.2 µM	16.9 µM	31 µM	1.8 µM	3.48 µM	4.65 µM	17.6 µM	11.9 µM	24.5 µM	15.3 µM	29.6 µM	15.9 µM	29.5 µM	11 µM	24.3 µM	10.6 µM	47.6 µM	1.97 µM	4.17 µM
CN=C1NC(=O)/C(=C/c2ccc3ncccc3c2)S1	7.81 µM	> 25 µM	> 20 µM	> 25 µM	6.74 µM	> 25 µM	9.6 µM	> 25 µM	18.5 µM	> 25 µM	5.42 µM	14.4 µM	7.44 µM	> 20.1 µM	7.7 µM	> 25 µM	3.8 µM	> 21.2 µM	6.02 µM	> 25 µM
COc1cc2c(c(O)c1C)C(=O)C(Cl)=CC2=O	–	16 µM	–	44.8 µM	–	23.8 µM	–	16.5 µM	–	27.8 µM	–	31.2 µM	–	21.7 µM	–	27.6 µM	–	31.5 µM	–	15.3 µM
COc1cccc(-c2nn(-c3ccccc3)cc2-c2ccnc(NCCCNS(=O)(=O)c3cccc(F)c3)c2)c1	4.62 µM	> 100 µM	3.92 µM	> 100 µM	4.05 µM	> 100 µM	3.3 µM	> 100 µM	3.43 µM	> 100 µM	2.59 µM	8.32 µM	1.86 µM	3.77 µM	5.37 µM	> 100 µM	4.57 µM	> 100 µM	5.32 µM	> 100 µM
O=C(O)Cc1c[nH]c2ccc(F)cc12	–	> 100 µM	–	> 100 µM	–	> 100 µM	–	> 100 µM	–	> 100 µM	–	> 100 µM	–	> 100 µM	–	> 100 µM	–	> 100 µM	–	> 100 µM
O=C1CSC(N2CCN(c3cccc(Cl)c3)CC2)=N1	> 100 µM	> 100 µM	> 100 µM	> 100 µM	> 100 µM	> 100 µM	> 100 µM	> 100 µM	> 100 µM	> 100 µM	> 100 µM	> 100 µM	> 100 µM	> 100 µM	> 100 µM	> 100 µM	84.9 µM	> 100 µM	> 100 µM	> 100 µM
CC1=C2[C@@H](CC1)[C@]1(C)O[C@@](C(C)C)(C[C@H]1OC(=O)[C@H](C)O)[C@H]2OC(=O)/C=C/c1ccccc1	16.2 µM	41.9 µM	13.4 µM	28.2 µM	15.1 µM	30.7 µM	13.4 µM	32.5 µM	15.3 µM	36.4 µM	16.1 µM	33 µM	13.6 µM	26.7 µM	1.47 µM	24.6 µM	19.2 µM	51.2 µM	16.3 µM	32 µM
